Source: patent publication US6355799B1, “Substituted benzene compounds, process for their preparation, and herbicidal and defoliant compositions containing them” (ISK Americas Incorporated, priority 1997, dated 2002)

Experiments:
Format in all cases: in vivo
[1] = tested on: redroot pigweed (Amaranthus retroflexus, AMARE); experiment: Pre-emerge test, greenhouse herbicide activity screening; details: pre-emerge, 14 days after application, scale 0-100
Procedure, shortened: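 Compounds in acetone were track-sprayed at 187 l/ha, 15–1000 g ai/ha, onto sandy loam pots. Pre-emerge seeds were sown one day before spraying, with surface watering afterwards. Post-emerge plants were at the 2–3 leaf stage and sprayed with 0.25% v/v non-ionic surfactant. Injury was rated 0–100 at 14 days.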

[2] = tested on: upland rice (Oryza sp., var. Tebonnet, RICE); experiment: Pre-emerge test, crop safety; details: pre-emerge, 14 days after application, scale 0-100
Procedure, shortened: (§1)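 Sandy loam pots; pre-emerge: sown 1 d pre-spray, surface-watered after, then bottom-watered. Post-emerge: sown 8–21 d before, 2–3 leaf stage, + 0.25% v/v NIS, bottom-watered. Acetone, 187 l/ha track spray, 15–1000 g ai/ha. 0–100 injury score, day 14.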

[3] = tested on: field corn (Zea mays L., var. Dekalb 535, CORN); experiment: Pre-emerge test, crop safety; details: pre-emerge, 63 g ai/ha, 14 days after application, scale 0-100
Procedure, shortened: as §1

[4] = tested on: upland rice (Oryza sp., var. Tebonnet, RICE); experiment: Post-emerge test, crop safety; details: post-emerge, 14 days after application, rating scale 0-100
Procedure, shortened: (§2)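 Compounds in acetone were track-sprayed at 15-1000 g ai/ha (187 l/ha) on sandy loam pots: pre-emerge one day after seeding, post-emerge at 2-3 leaf stage with 0.25% v/v non-ionic surfactant. Phytotoxicity was rated 14 days later on a 0 (no damage) to 100 (complete death) scale.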

[5] = tested on: field corn (Zea mays L., var. Dekalb 535, CORN); experiment: Post-emerge test, crop safety; details: post-emerge, 14 days after application, rating scale 0-100
Procedure, shortened: as §2

[6] = tested on: lambsquarters (Chenopodium album, CHEAL); experiment: Post-emerge test, greenhouse herbicide activity screening; details: post-emerge, 14 days after application, rating scale 0-100
Procedure, shortened: (§3)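 Visual ratings on a 0-100 scale (0 no damage, 100 all plants dead) were taken at 14 days after treatment. Rates of 15-1000 g ai/ha in acetone, 187 l/ha, were sprayed onto soil one day after planting (pre-emerge) or onto 2-3 leaf plants with 0.25% v/v surfactant (post-emerge).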

[7] = tested on: barnyardgrass (Echinochloa crus-galli, ECHCG); experiment: as above; details: post-emerge, 14 days after application, rating scale 0-100
Procedure, shortened: as §3

[8] = tested on: velvetleaf (Abutilon theophrasti, ABUTH); experiment: as above; details: post-emerge, 14 days after application, rating scale 0-100
Procedure, shortened: as §3

[9] = tested on: redroot pigweed (Amaranthus retroflexus, AMARE); experiment: as above; details: post-emerge, 14 days after application, rating scale 0-100
Procedure, shortened: as §3

[10] = tested on: large crabgrass (Digitaria sanguinalis, DIGSA); experiment: as above; details: post-emerge, 14 days after application, rating scale 0-100
Procedure, shortened: as §3

[11] = tested on: green foxtail (Setaria viridis, SETVI); experiment: as above; details: post-emerge, 14 days after application, rating scale 0-100
Procedure, shortened: as §3

[12] = tested on: sicklepod (Cassia obtusifolia, CASOB); experiment: as above; details: post-emerge, 14 days after application, rating scale 0-100
Procedure, shortened: as §3

[13] = tested on: johnsongrass (Sorghum halepense, SORHA); experiment: as above; details: post-emerge, 14 days after application, rating scale 0-100
Procedure, shortened: as §3

[14] = tested on: ivyleaf morningglory (Ipomoea hederacea, IPOHE); experiment: as above; details: post-emerge, 14 days after application, rating scale 0-100
Procedure, shortened: as §3

[15] = tested on: lambsquarters (Chenopodium album, CHEAL); experiment: Pre-emerge test, greenhouse herbicide activity screening; details: pre-emerge, 14 days after application, scale 0-100
Procedure, shortened: as §2

[16] = tested on: barnyardgrass (Echinochloa crus-galli, ECHCG); experiment: as above; details: pre-emerge, 14 days after application, scale 0-100
Procedure, shortened: as §2

[17] = tested on: velvetleaf (Abutilon theophrasti, ABUTH); experiment: as above; details: pre-emerge, 14 days after application, scale 0-100
Procedure, shortened: as §2

[18] = tested on: large crabgrass (Digitaria sanguinalis, DIGSA); experiment: as above; details: pre-emerge, 14 days after application, scale 0-100
Procedure, shortened: as §2

[19] = tested on: green foxtail (Setaria viridis, SETVI); experiment: as above; details: pre-emerge, 14 days after application, scale 0-100
Procedure, shortened: as §2

[20] = tested on: sicklepod (Cassia obtusifolia, CASOB); experiment: as above; details: pre-emerge, 14 days after application, scale 0-100
Procedure, shortened: as §2

[21] = tested on: johnsongrass (Sorghum halepense, SORHA); experiment: as above; details: pre-emerge, 14 days after application, scale 0-100
Procedure, shortened: as §2

[22] = tested on: ivyleaf morningglory (Ipomoea hederacea, IPOHE); experiment: as above; details: pre-emerge, 14 days after application, scale 0-100
Procedure, shortened: as §2

What does the source list for `COc1c(Cl)cc(F)c(-n2c(=O)cc(C(F)(F)F)n(C)c2=O)c1NC(=O)CSC` [2-168]?
phytotoxicity rating AMARE ([1]; 63 g ai/ha): 90; phytotoxicity rating AMARE ([1]; 250 g ai/ha): 100; phytotoxicity rating RICE (crop damage) ([2]; 63 g ai/ha): 20; phytotoxicity rating RICE (crop damage) ([2]; 250 g ai/ha): 60; phytotoxicity rating CORN (crop damage) [3]: 0; RICE phytotoxicity rating (crop damage) ([4]; 63 g ai/ha): 10; RICE phytotoxicity rating (crop damage) ([4]; 250 g ai/ha): 30; CORN phytotoxicity rating (crop damage) ([5]; 63 g ai/ha): 5; CORN phytotoxicity rating (crop damage) ([5]; 250 g ai/ha): 10; CHEAL phytotoxicity rating ([6]; 63 g ai/ha): 30; CHEAL phytotoxicity rating ([6]; 250 g ai/ha): 50; ECHCG phytotoxicity rating ([7]; 63 g ai/ha): 0; ECHCG phytotoxicity rating ([7]; 250 g ai/ha): 0; ABUTH phytotoxicity rating ([8]; 63 g ai/ha): 60; ABUTH phytotoxicity rating ([8]; 250 g ai/ha): 100; AMARE phytotoxicity rating ([9]; 63 g ai/ha): 20; AMARE phytotoxicity rating ([9]; 250 g ai/ha): 50; DIGSA phytotoxicity rating ([10]; 63 g ai/ha): 0; DIGSA phytotoxicity rating ([10]; 250 g ai/ha): 0; SETVI phytotoxicity rating ([11]; 63 g ai/ha): 0; SETVI phytotoxicity rating ([11]; 250 g ai/ha): 10; CASOB phytotoxicity rating ([12]; 63 g ai/ha): 0; CASOB phytotoxicity rating ([12]; 250 g ai/ha): 80; SORHA phytotoxicity rating ([13]; 63 g ai/ha): 0; SORHA phytotoxicity rating ([13]; 250 g ai/ha): 0; IPOHE phytotoxicity rating ([14]; 63 g ai/ha): 60; IPOHE phytotoxicity rating ([14]; 250 g ai/ha): 100; phytotoxicity rating CHEAL ([15]; 63 g ai/ha): 100; phytotoxicity rating CHEAL ([15]; 250 g ai/ha): 100; phytotoxicity rating ECHCG ([16]; 63 g ai/ha): 0; phytotoxicity rating ECHCG ([16]; 250 g ai/ha): 20; phytotoxicity rating ABUTH ([17]; 63 g ai/ha): 60; phytotoxicity rating ABUTH ([17]; 250 g ai/ha): 100; phytotoxicity rating DIGSA ([18]; 63 g ai/ha): 0; phytotoxicity rating DIGSA ([18]; 250 g ai/ha): 80; phytotoxicity rating SETVI ([19]; 63 g ai/ha): 10; phytotoxicity rating SETVI ([19]; 250 g ai/ha): 95; phytotoxicity rating CASOB ([20]; 63 g ai/ha): 30; phytotoxicity rating CASOB ([20]; 250 g ai/ha): 80; phytotoxicity rating SORHA ([21]; 63 g ai/ha): 0; phytotoxicity rating SORHA ([21]; 250 g ai/ha): 90; phytotoxicity rating IPOHE ([22]; 63 g ai/ha): 40; phytotoxicity rating IPOHE ([22]; 250 g ai/ha): 90
